The assay deals with H4-Arg 3 methylation in HeLa cells. Kind of assay: TSA treatment of HeLa cells, methylation state of H4-Arg 3 in isolated core histones. The assay is classed as cell-based, human. The conditions noted are these: twelve hours after TSA treatment, hyperacetylated H4. The protocol: To determine whether this inhibition occurs in vivo, HeLa cells were treated with a histone deacetylase inhibitor, Tricostatin A (TSA), to induce hyperacetylation. Twelve hours after TSA treatment, core histones were isolated, and the methylation state of H4-Arg 3 was analyzed. […] Therefore, hyperacetylation on lysine residues correlates with hypomethylation of H4 Arg 3.

SMILES strings stand for the structures.

Take `CC(/C=C/C(=O)NO)=C\[C@@H](C)C(=O)c1ccc(N(C)C)cc1` [Tricostatin A]: the “H4 Arg 3 methylation level” value was “almost undetectable”.

(Values after patent US20040186274A1, “Methylation of histone h4 at arginine 3” (priority 2001, published 2004).)
